Test results reported in PMC5652080 (Current Enzyme Inhibition, 2015).

How the values were obtained:
[1] = target: Triosephosphate isomerase (G233D HsTIM) (Homo sapiens, UniProt P60174, G233D); experiment: coupled enzyme assay, Kmapp vs PEP at varied GAP; format: biochemical
[2] = target: Triosephosphate isomerase (WT HsTIM) (Homo sapiens, UniProt P60174); experiment: coupled enzyme assay, Kmapp vs PEP at varied GAP; format: biochemical
Chain of Triosephosphate isomerase (WT HsTIM) (P60174 2-249): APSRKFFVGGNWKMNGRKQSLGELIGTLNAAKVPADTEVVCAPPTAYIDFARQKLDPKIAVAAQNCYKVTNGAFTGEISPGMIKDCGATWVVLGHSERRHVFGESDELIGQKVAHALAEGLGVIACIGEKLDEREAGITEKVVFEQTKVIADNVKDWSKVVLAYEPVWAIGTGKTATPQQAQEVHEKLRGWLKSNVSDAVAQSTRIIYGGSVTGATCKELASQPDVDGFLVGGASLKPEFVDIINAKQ

Chain of Triosephosphate isomerase (G233D HsTIM) (P60174 2-249 G233D): as the sequence (P60174 2-249) above, with G232D counted along it

Q: For `C=C(OP(=O)(O)O)C(=O)O` [phosphoenolpyruvate], which Ki [1] is on record?
A: Its Ki is 120 ± 5.2 µM.

Q: What about the Ki [2] of the same compound?
A: Its Ki is 123 ± 5 µM.
